In US12576099B2, “Ribose-modified cap analog and use thereof” (Beijing Youcare Kechuang Pharmaceutical Technology Co., Ltd., priority 2024, dated 2026):

Experiments:
T7 RNA polymerase = T7 RNA polymerase (Escherichia phage T7, UniProt P00573); assay: In vitro transcription yield of mRNA using cap analogs; type: biochemical; settings: for Yield per unit template: in vitro transcription, 1 μg DNA template, 37° C., 2 hours
Description: • (1) Capping synthesis using cap analogs
The plasmid was first linearized with plasmid linearizing enzyme, and then the linearized plasmid was purified. • (2) In vitro transcription and synthesis of mRNA
During the experiment, the volume of materials required for the system was first calculated, and then sample addition was conducted. The system was first added with sterile enzyme-free water, followed by the sequential addition of 10× buffer, NTPs, and cap analogs, mixed well, and gently centrifuged. Nuclease inhibitors, inorganic pyrophosphatase, T7RNA polymerase, and linearized DNA templates were then added thereto. The system was mixed well, gently centrifuged, and incubated at 37° C. After 2 hours of incubation, the system was added with 1 U of DNase I and incubated at 37° C. for another 30 minutes. The mRNA precipitate was then washed with 75% ethanol, and after the ethanol was briefly evaporated to dryness, the mRNA was redissolved in sterile enzyme-free water. • (3) The transcription product was purified, and the in vitro transcription yield of mRNA was recorded. • (4) The obtained mRNA was subjected to an annealing reaction with a probe.

[1] = Characterization of lipid nanoparticles encapsulating Fluc-mRNA prepared from different cap structures; type: physicochemical; settings: for Particle size: LNP (YK-009/DSPC/cholesterol/DMG-PEG2000) with Fluc-mRNA transcribed using the named cap analog; for PDI: LNP with Fluc-mRNA transcribed using the named cap analog; for EE: encapsulation efficiency of LNP with Fluc-mRNA transcribed using the named cap analog
Method in brief: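 LNPs of YK-009/DSPC/cholesterol/DMG-PEG2000 (49:10:39.5:1.5) made by microfluidic mixing with Fluc-mRNA in 50 mM citrate pH 4, lipid:mRNA ~15:1 w/w, then ultrafiltered into PBS and 0.2 μm filtered. Size and PDI by DLS (90°, 25 °C, triplicate); encapsulation efficiency by RiboGreen assay.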

HEK293T cells = assay: Translation efficiency of different capped luciferase mRNAs; type: cell-based; settings: for Relative fluorescence intensity: HEK293T, 0.5 μg mRNA per well, 24 hours, proportional to translation efficiency; for Multiple of m6A (relative fluorescence intensity): relative to m6A
Method in brief: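 HEK293T cells were transfected with 0.5 μg capped luciferase mRNA per well (Lipofectamine MessengerMAX) and cultured 24 h at 37 °C. Lysates were mixed with Dual-Lumi II reagent for 5 min at about 25 °C; luminescence served as the measure of translation efficiency.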

DCP2 enzyme = target: T1, DCP2 enzyme (Schizosaccharomyces pombe, UniProt O13828); assay: Decapping enzyme stability test; type: biochemical; settings: for Decapping rate (%) of DCP2 enzyme: 50 U mRNA decapping enzyme, 37° C., 45 minutes
T1 construct: purchased New England Biolabs
T1 sequence (O13828 1-243 limits assumed): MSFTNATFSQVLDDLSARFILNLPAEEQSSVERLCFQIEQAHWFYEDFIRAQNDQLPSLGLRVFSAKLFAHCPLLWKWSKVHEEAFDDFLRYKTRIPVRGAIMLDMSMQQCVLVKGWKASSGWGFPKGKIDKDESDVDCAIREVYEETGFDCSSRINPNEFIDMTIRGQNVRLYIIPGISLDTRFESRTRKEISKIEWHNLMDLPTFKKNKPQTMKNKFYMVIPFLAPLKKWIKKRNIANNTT
T1 sequence (Q9P805 1-127 partner): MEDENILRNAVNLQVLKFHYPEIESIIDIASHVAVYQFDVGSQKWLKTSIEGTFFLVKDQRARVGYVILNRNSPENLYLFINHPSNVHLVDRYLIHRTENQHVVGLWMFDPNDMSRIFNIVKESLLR
T1 sequence (Q10108 155-180 partner limits assumed): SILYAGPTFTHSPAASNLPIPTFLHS
Method in brief: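 PAGE-purified RNA ([…]) incubated with 50 U mRNA decapping enzyme in 1×MDE buffer at 37° C. for 45 minutes. Products resolved by PAGE, SYBR Green II stained; decapping rate derived from capped-to-decapped band intensity ratio.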

Sequence of T7 RNA polymerase (P00573 whole entry): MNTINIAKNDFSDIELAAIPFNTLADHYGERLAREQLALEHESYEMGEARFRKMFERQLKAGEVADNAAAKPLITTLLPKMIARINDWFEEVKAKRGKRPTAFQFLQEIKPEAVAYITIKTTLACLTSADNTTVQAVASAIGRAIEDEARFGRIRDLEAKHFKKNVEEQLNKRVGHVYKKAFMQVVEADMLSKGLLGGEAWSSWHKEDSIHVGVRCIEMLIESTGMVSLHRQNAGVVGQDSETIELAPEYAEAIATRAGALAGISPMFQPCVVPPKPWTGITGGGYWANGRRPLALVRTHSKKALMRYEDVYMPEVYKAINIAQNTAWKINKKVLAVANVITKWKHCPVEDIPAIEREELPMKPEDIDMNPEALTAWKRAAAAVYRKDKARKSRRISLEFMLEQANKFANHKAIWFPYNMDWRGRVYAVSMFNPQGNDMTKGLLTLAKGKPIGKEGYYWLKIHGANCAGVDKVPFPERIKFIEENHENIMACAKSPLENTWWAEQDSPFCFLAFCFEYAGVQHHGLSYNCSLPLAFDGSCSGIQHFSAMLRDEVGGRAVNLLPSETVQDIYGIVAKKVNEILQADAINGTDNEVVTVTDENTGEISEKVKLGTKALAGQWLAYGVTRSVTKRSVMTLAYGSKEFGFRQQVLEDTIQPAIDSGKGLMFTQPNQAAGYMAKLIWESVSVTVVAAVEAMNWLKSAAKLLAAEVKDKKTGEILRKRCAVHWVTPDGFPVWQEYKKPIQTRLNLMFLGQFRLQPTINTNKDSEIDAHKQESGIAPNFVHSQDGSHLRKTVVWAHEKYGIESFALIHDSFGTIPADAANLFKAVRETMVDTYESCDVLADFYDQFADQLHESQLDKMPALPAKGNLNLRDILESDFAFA

Row | Compound | Yield per unit template (T7 RNA polymerase) | Increase relative to 5227 (in vitro transcription yield) (T7 RNA polymerase) | Particle size [1] | PDI [1] | EE [1] | Relative fluorescence intensity (HEK293T cells) | Multiple of m6A (relative fluorescence intensity) (HEK293T cells) | Decapping rate (%) of DCP2 enzyme (DCP2 enzyme) | Decrease relative to N-7113 (decapping rate) (DCP2 enzyme) | further results
1 | CCN(CC)C(=O)[C@H]1[C@@H](O)[C@H]([n+]2cn(C)c3c(=O)[nH]c(N)nc32)O[C@@H]1COP(=O)(O)OP(=O)(O)OP(=O)(O)OC[C@H]1O[C@@H](n2cnc3c(N)ncnc32)[C@H](OC)[C@@H]1OP(=O)(O)OC[C@H]1O[C@@H](n2cnc3c(=O)[nH]c(N)nc32)[C@H](O)[C@@H]1O [YK-CAP-111] | 173.5 µg | 29.3% | 78.33 nm | 0.053 | 95.1% | 2.12 | 5.6 | 11.5% | 32.3% | Transcription yield, times that of YK-CAP-101 (T7 RNA polymerase; relative to YK-CAP-101): 5.3 times; Transcription yield, times that of YK-CAP-102 (T7 RNA polymerase; relative to YK-CAP-102): 3.9 times; Transcription yield, times that of YK-CAP-103 (T7 RNA polymerase; relative to YK-CAP-103): 2.0 times; Transcription yield, times that of YK-CAP-104 (T7 RNA polymerase; relative to YK-CAP-104): 2.4 times; Transcription yield, times that of YK-CAP-105 (T7 RNA polymerase; relative to YK-CAP-105): 2.1 times; In vitro transcription yield of mRNA higher than that of compound 14 (T7 RNA polymerase; relative to compound 14): 40.8%; Relative fluorescence intensity, times that of HN3002 (HEK293T cells; relative to HN3002): 1.9 times; Relative fluorescence intensity, times that of N-7113 (HEK293T cells; relative to N-7113): 2.1 times; Relative fluorescence intensity (translation efficiency), times that of YK-CAP-101 (HEK293T cells; relative to YK-CAP-101): 9.6 times; Relative fluorescence intensity, times that of YK-CAP-102 (HEK293T cells; relative to YK-CAP-102): 6.2 times; Relative fluorescence intensity, times that of YK-CAP-103 (HEK293T cells; relative to YK-CAP-103): 2.8 times; Relative fluorescence intensity, times that of YK-CAP-104 (HEK293T cells; relative to YK-CAP-104): 2.6 times; Relative fluorescence intensity, times that of YK-CAP-105 (HEK293T cells; relative to YK-CAP-105): 2.9 times; Relative fluorescence intensity, times that of compound 14 (HEK293T cells; relative to compound 14): 1.9 times
2 | COC[C@@H]1[C@H](OP(=O)(O)OC[C@H]2O[C@@H](n3cnc4c(=O)[nH]c(N)nc43)[C@H](O)[C@@H]2O)[C@@H](COP(=O)(O)OP(=O)(O)OP(=O)(O)OC[C@H]2O[C@@H]([n+]3cn(C)c4c(=O)[nH]c(N)nc43)[C@H](O)[C@@H]2O)O[C@H]1n1cnc2c(N)ncnc21 [YK-CAP-113] | 166.1 µg | 23.8% | 79.34 nm | 0.043 | 96.1% | 1.63 | 4.3 | 15.3% | 28.5% | –
3 | COC[C@]1(COP(=O)(O)OP(=O)(O)OP(=O)(O)OC[C@H]2O[C@@H](n3cnc4c(N)ncnc43)[C@H](OC)[C@@H]2OP(=O)(O)OC[C@H]2O[C@@H](n3cnc4c(=O)[nH]c(N)nc43)[C@H](O)[C@@H]2O)O[C@@H]([n+]2cn(C)c3c(=O)[nH]c(N)nc32)[C@H](O)[C@@H]1O [YK-CAP-117] | 153.2 µg | 14.2% | 72.56 nm | 0.044 | 94.3% | 1.82 | 4.8 | 9.8% | 34.0% | Decapping rate lower than that of HN3002 (DCP2 enzyme; relative to HN3002): 13.5%; Decapping rate lower than that of YK-CAP-101 (DCP2 enzyme; relative to YK-CAP-101): 22.6%; Decapping rate lower than that of YK-CAP-102 (DCP2 enzyme; relative to YK-CAP-102): 31.4%; Decapping rate lower than that of YK-CAP-103 (DCP2 enzyme; relative to YK-CAP-103): 26.7%; Decapping rate lower than that of YK-CAP-104 (DCP2 enzyme; relative to YK-CAP-104): 36.3%; Decapping rate lower than that of YK-CAP-105 (DCP2 enzyme; relative to YK-CAP-105): 24.1%; Decapping rate lower than that of compound 14 (DCP2 enzyme; relative to compound 14): 17.0%; Decapping rate lower than that of m6A (DCP2 enzyme; relative to m6A): 24.0%
4 | CO[C@@H]1[C@H](OP(=O)(O)OC[C@H]2O[C@@H](n3cnc4c(=O)[nH]c(N)nc43)[C@H](O)[C@@H]2O)[C@@H](COP(=O)(O)OP(=O)(O)OP(=O)(O)OC[C@@]2(CF)O[C@@H]([n+]3cn(C)c4c(=O)[nH]c(N)nc43)[C@H](O)[C@@H]2O)O[C@H]1n1cnc2c(N)ncnc21 [YK-CAP-118] | 172.2 µg | 28.3% | 75.84 nm | 0.055 | 97.2% | 1.65 | 4.3 | 11.9% | 31.9% | –
5 | CO[C@@H]1[C@H](OP(=O)(O)OC[C@H]2O[C@@H](n3cnc4c(=O)[nH]c(N)nc43)[C@H](O)[C@@H]2O)[C@@H](COP(=O)(O)OP(=O)(O)OP(=O)(O)OC[C@@]2(C(F)F)O[C@@H]([n+]3cn(C)c4c(=O)[nH]c(N)nc43)[C@H](O)[C@@H]2O)O[C@H]1n1cnc2c(N)ncnc21 [YK-CAP-119] | 154.2 µg | 14.9% | 82.45 nm | 0.057 | 94.6% | 1.45 | 3.8 | 11.4% | 32.4% | –
6 | CO[C@@H]1[C@H](OP(=O)(O)OC[C@H]2O[C@@H](n3cnc4c(=O)[nH]c(N)nc43)[C@H](O)[C@@H]2O)[C@@H](COP(=O)(O)OP(=O)(O)OP(=O)(O)OC[C@@]2(OC)O[C@@H]([n+]3cn(C)c4c(=O)[nH]c(N)nc43)[C@H](O)[C@@H]2O)O[C@H]1n1cnc2c(N)ncnc21 [compound 5227, reference compound] | 134.2 µg | 0% | 83.34 nm | 0.028 | 94.9% | 0.82 | 2.2 | 23.2% | 20.6% | –
